Like-named read-outs stand apart in the source and are kept apart here.
What was measured:
KKAY mice [1] = test: Hypoglycemic and hypolipidemic actions in mice (Test Example 1); type: in vivo; conditions: Mus musculus, po, 96 h, 0.005% in powdery diet, four days, non-treated group taken as 100%
Experimental: Test compounds were mixed in a powdery diet (CE-2, Japan Clea) at the concentration of 0.005%, and freely given to KKAY mice (9 to 12 weeks old, 5 mice in a group), a model of obese and non-insulin dependent diabetes (type 2 diabetes), for four days. During this period, water was given freely. Blood was sampled from orbital venous plexus, and glucose and triglyceride levels in plasma separated from blood were determined enzymatically using L type Wako Glu2 (Wako Pure Chemical Industries, Ltd.) or L type Wako TG·H (Wako Pure Chemical Industries, Ltd.), respectively.
In the table, “hypoglycemic action (%)” means the rate of decrease (%) in the blood glucose level of the treated group when the blood glucose level of the non-treated group is taken as 100%. In addition, the “hypolipidemic action (%)” means the rate of decrease (%) in the blood triglyceride level of the treated group when the blood triglyceride level of the non-treated group is taken as 100%.

KKAY mice [2] = test: Plasma anti-arteriosclerosis index-enhancing action in mice (Test Example 2); type: in vivo; conditions: Mus musculus, po, 96 h, 0.005% in powdery diet, four days, percent increase of (HDL cholesterol/total cholesterol)x100, non-treatment group taken as 100%
Experimental: Test compounds were mixed in a powdery diet (CE-2, Japan Clea) at the concentration of 0.005%, and freely given to KKAY mice (9 to 12 weeks old, 5 mice per group), a model of obese and non-insulin dependent diabetes (type 2 diabetes), for four days. During this period, water was given freely. Blood was sampled from orbital venous plexus and components in plasma separated from blood were determined. Total cholesterol levels were determined by using L type Wako Cholesterol (Wako Pure Chemical Industries, Ltd.). Precipitation reagent for HDL cholesterol (Wako Pure Chemical Industries, Ltd.) was added to a part of the plasma to precipitate non-HDL lipoprotein, and cholesterol (HDL cholesterol) in the resulting supernatant was determined. The plasma anti-arteriosclerosis index [(HDL cholesterol/total cholesterol)×100] was calculated by using these cholesterol levels.
In the Table, “Plasma anti-arteriosclerosis index-enhancing action (%)” represents the percent increase (%) of plasma anti-arteriosclerosis index in the treatment group, when the plasma anti-arteriosclerosis index in the non-treatment group is taken as 100%.

PPARγ-RXRα heterodimer = biological target: T1, PPARγ-RXRα heterodimer (Homo sapiens, UniProt P37231); test: PPARγ-RXRα heterodimer ligand activity, luciferase reporter in PPARγ:RXRα:4ERPP/CHO-K1 cells (Test Example 3); type: cell-based; conditions: 18-48 hours, concentration for 50% of the maximum fold induction
T1 construct: expressed in transfected cells; host or cells: CHO-K1
T1 sequence (P37231 1-477 isoform P37231-2): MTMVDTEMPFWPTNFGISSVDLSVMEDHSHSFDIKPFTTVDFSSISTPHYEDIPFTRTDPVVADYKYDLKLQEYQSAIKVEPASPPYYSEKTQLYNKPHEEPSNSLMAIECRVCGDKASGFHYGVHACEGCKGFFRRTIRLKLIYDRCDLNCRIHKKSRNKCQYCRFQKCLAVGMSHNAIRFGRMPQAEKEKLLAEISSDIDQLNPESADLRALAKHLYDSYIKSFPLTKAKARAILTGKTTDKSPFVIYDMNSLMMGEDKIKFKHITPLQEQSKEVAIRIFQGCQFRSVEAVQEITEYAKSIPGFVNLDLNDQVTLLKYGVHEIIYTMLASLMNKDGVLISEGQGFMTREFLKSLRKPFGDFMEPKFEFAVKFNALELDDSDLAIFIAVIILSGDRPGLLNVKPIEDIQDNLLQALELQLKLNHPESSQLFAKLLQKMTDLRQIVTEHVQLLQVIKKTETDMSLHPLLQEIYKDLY
T1 sequence (P19793 1-462 partner): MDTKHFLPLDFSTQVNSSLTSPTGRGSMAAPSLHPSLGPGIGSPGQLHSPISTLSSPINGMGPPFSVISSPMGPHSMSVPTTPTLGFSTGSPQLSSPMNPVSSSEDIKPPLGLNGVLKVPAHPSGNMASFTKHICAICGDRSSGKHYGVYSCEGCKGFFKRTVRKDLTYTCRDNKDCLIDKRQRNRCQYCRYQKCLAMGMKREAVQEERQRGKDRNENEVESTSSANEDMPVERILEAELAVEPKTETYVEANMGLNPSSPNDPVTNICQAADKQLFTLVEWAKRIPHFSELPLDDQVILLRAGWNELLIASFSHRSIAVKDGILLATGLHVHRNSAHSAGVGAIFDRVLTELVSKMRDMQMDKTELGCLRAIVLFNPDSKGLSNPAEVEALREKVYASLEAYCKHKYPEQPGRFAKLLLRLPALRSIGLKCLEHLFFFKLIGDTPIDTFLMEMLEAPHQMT
Experimental: A PPARγ: RXRα: 4ERPP/CHO-K1 cells obtained in Reference Example 8a described later were cultured in HAM F12 medium (produced by Life Technologies, Inc., USA) containing 10% Fetal bovine serum (produced by Life Technologies, Inc., USA) and then inoculated to a 96-well white plate (produced by Corning Costar Corporation, USA) at the density of 2×10^4 cells/well, and cultured in a CO2 gas incubator at 37° C. overnight.
After removing the medium from 96 well white plate, 80 μl of HAM F12 medium containing 0.1% fatty acid-free bovine serum albumin (BSA) and 20 μl of test compound were added, which was cultured in a CO2 gas incubator at 37° C. for 18-48 hours. After removing the medium, 40 μl of PIKKAGENE 7.5 (produced by Wako Pure Chemical Industries, Ltd.) diluted twice with HBSS (HANKS' BALANCED SALT SOLUTION)(produced by BIO WHITTAKER Inc., USA), was added. After stirring, the luciferase activity was determined using 1420 ARVO Multilabel Counter (produced by PerkinElmer Inc., USA).
A fold induction was calculated based on the luciferase activity of each test compound by taking the luciferase activity in the non-treatment group as 1. The values of the test compound concentration and the fold induction were analyzed using PRISM (produced by GraphPad Software Inc. USA) to calculate the EC50 values, the effective concentration of a test compound for 50% of the maximum fold induction.
After a CHO-K1 cell cultured in a 150 cm^2 cell culture flask (750 ml)(produced by Corning Costar Corporation, USA) containing HAM F12 medium (produced by Life Technologies, Inc., USA) supplemented with 10% Fetal Bovine Serum (produced by Life Technologies, Inc., USA) was scraped by treating with 0.5 g/L trypsin-0.2 g/L EDTA (ethylenediaminetetraacetic acid) (produced by Life Technologies, Inc., USA), the cell was washed with PBS (phosphate-buffered saline) (produced by Life Technologies, Inc., USA), centrifuged (1000 rpm, 5 minutes), and then suspended in PBS. Subsequently, a DNA was introduced into the cell under the condition shown below using GENE PULSER (produced by Bio-Rad Laboratories, USA).
Namely, to a cuvette having a 0.4 cm gap, added were 8×10^6 cells and 10 μg of plasmid pVgRXR2-hPPARγ obtained in Reference Example 7a and 10 μg of reporter plasmid pGL3-4ERPP-TK neo obtained in Reference Example 5a, which was subjected to electroporation at the voltage of 0.25 kV under the capacitance of 960 μF. Subsequently, the cell was transferred into a HAM F12 medium containing 10% Fetal Bovine Serum and cultured for 24 hours and then the cell was scraped again and centrifuged, and then suspended in HAM F12 medium containing 10% Fetal Bovine Serum supplemented with 500 μg/ml of GENETICIN (produced by Life Technologies, Inc., USA) and 250 μg/ml of ZEOCIN (produced by Invitrogen, USA). The obtained suspension was diluted to the density of 10^4 cells/ml and inoculated to a 96-well plate (produced by Corning Costar Corporation, USA), which was cultured in a CO2 gas incubator at 37° C., whereby obtaining a GENETICIN- and ZEOCIN-resistant transformant.
Subsequently, after the transformant cell line thus obtained was cultured in a 24-well plate (produced by Corning Costar Corporation, USA), selected was a cell line in which the luciferase was expressed and induced, i.e., PPARγ:RXRα:4ERPP/CHO-K1 cell by addition of 10 μM of pioglitazone hydrochloride.

[3] = rate of decrease in blood glucose level, read-out: Hypoglycemic action (%)
[4] = rate of decrease in blood triglyceride level, read-out: Hypolipidemic action (%)

SMILES	melting point	EC50 (PPARγ-RXRα heterodimer)	inhibition in vivo at 0.005 % in diet (KKAY mice [1]; [3])	inhibition in vivo at 0.005 % in diet (KKAY mice [1]; [4])	change in vivo at 0.005 % in diet (KKAY mice [2])
COc1cccc(CC(=O)O)c1OCCCc1cn(-c2ccc(C(F)(F)F)cc2)nc1C(C)C [Example 185, [2-(3-{3-isopropyl-1-[4-(trifluoromethyl)phenyl]-1H-pyrazol-4-yl}propoxy)-3-methoxyphenyl]acetic acid]	114 to 115 °C	–	47%	43%	15%
CCOc1cccc(CC(=O)O)c1OCCCc1cn(-c2ccc(C(F)(F)F)cn2)nc1C(CC)CC [Example 221, [3-ethoxy-2-(3-{3-(1-ethylpropyl)-1-[5-(trifluoromethyl)-2-pyridyl]-1H-pyrazol-4-yl}propoxy)phenyl]acetic acid]	83 to 84 °C	12 nM	46%	21%	–
CCCc1nn(-c2ccc(C(F)(F)F)cn2)cc1CCCOc1c(CC)cccc1CC(=O)O [Example 229, [3-ethyl-2-(3-{3-propyl-1-[5-(trifluoromethyl)-2-pyridinyl]-1H-pyrazol-4-yl}propoxy)phenyl]acetic acid]	146 to 147 °C	21 nM	41%	49%	–
CC(C)c1nn(-c2ccc(C(F)(F)F)cn2)cc1CCCOc1c(Br)cccc1CC(=O)O [Example 235, [3-bromo-2-(3-{3-isopropyl-1-[5-(trifluoromethyl)-2-pyridinyl]-1H-pyrazol-4-yl}propoxy)phenyl]acetic acid]	146 to 147 °C	26 nM	43%	64%	–
CC(C)c1nn(-c2ccc(C(F)(F)F)cn2)cc1CCCOc1c(Cl)cccc1CC(=O)O [Example 239, [3-chloro-2-(3-{3-isopropyl-1-[5-(trifluoromethyl)-2-pyridinyl]-1H-pyrazol-4-yl}propoxy)phenyl]acetic acid]	141 to 142 °C	35 nM	42%	65%	–
COc1cccc(CC(=O)O)c1OCCCc1cn(-c2ccc(C#N)nn2)nc1C(C)C [Example 337, (2-{3-[1-(6-cyanopyridazin-3-yl)-3-isopropyl-1H-pyrazol-4-yl]propoxy}-3-methoxyphenyl)acetic acid]	–	–	44%	48%	24%

Continued, in another order:

melting point	EC50 (PPARγ-RXRα heterodimer)	SMILES	inhibition in vivo at 0.005 % in diet (KKAY mice [1]; [3])	inhibition in vivo at 0.005 % in diet (KKAY mice [1]; [4])	change in vivo at 0.005 % in diet (KKAY mice [2])
132 to 133 °C	50 nM	COc1cccc(CC(=O)O)c1OCCCc1cn(-c2ccc(C)cn2)nc1C(C)C [Example 272, (3-methoxy-2-{3-[3-isopropyl-1-(5-methyl-2-pyridyl)-1H-pyrazol-4-yl]propoxy}phenyl)acetic acid]	48%	69%	–
122 to 123 °C	–	CC(C)c1nn(-c2ccc(C(F)(F)F)cn2)cc1CCCOc1nn(C)cc1CC(=O)O [Example 299, [3-(3-{3-isopropyl-1-[5-(trifluoromethyl)-2-pyridinyl]-1H-pyrazol-4-yl}propoxy)-1-methyl-1H-pyrazol-4-yl]acetic acid]	–	–	11%
146 to 148 °C	–	CC(C)c1nn(-c2ccc(C(F)(F)F)cn2)cc1CCCOc1c(CC(=O)O)cnn1C [Example 318, [5-(3-{3-isopropyl-1-[5-(trifluoromethyl)-2-pyridinyl]-1H-pyrazol-4-yl}propoxy)-1-methyl-1H-pyrazol-4-yl]acetic acid]	–	–	22%
120 to 121 °C	–	CCn1ncc(CC(=O)O)c1OCCCc1cn(-c2ccc(C(F)(F)F)cn2)nc1C(C)C [Example 322, [1-ethyl-5-(3-{3-isopropyl-1-[5-(trifluoromethyl)-2-pyridinyl]-1H-pyrazol-4-yl}propoxy)-1H-pyrazol-4-yl]acetic acid]	–	–	14%
108 to 109 °C	–	CCOc1nn(-c2ccc(C(F)(F)F)cn2)cc1CCCOc1nn(CC)cc1CC(=O)O [Example 335, [3-(3-{3-ethoxy-1-[5-(trifluoromethyl)-2-pyridinyl]-1H-pyrazol-4-yl}propoxy)-1-ethyl-1H-pyrazol-4-yl]acetic acid]	–	–	12%
